According to patent publication US10251892B2, “Bicyclic heterocycles as FGFR4 inhibitors” (Incyte Corporation, priority 2015, dated 2019):

Molecular target: FGFR3 enzyme (Homo sapiens (Human), UniProt P22607)
Test: FGFR Enzymatic Assay (peptide phosphorylation, FRET), FGFR3
Format: biochemical
Settings: IC50 ratio showing FGFR3 selectivity; pre-incubated for 4 hours
Method: The inhibitor potency of the exemplified compounds was measured in an enzyme assay that measures peptide phosphorylation using FRET measurements to detect product formation. Inhibitors were serially diluted in DMSO and a volume of 0.5 μL was transferred to the wells of a 384-well plate.
GraphPad prism3 was used to analyze the data.

Sequence of FGFR3 enzyme (P22607 23-806): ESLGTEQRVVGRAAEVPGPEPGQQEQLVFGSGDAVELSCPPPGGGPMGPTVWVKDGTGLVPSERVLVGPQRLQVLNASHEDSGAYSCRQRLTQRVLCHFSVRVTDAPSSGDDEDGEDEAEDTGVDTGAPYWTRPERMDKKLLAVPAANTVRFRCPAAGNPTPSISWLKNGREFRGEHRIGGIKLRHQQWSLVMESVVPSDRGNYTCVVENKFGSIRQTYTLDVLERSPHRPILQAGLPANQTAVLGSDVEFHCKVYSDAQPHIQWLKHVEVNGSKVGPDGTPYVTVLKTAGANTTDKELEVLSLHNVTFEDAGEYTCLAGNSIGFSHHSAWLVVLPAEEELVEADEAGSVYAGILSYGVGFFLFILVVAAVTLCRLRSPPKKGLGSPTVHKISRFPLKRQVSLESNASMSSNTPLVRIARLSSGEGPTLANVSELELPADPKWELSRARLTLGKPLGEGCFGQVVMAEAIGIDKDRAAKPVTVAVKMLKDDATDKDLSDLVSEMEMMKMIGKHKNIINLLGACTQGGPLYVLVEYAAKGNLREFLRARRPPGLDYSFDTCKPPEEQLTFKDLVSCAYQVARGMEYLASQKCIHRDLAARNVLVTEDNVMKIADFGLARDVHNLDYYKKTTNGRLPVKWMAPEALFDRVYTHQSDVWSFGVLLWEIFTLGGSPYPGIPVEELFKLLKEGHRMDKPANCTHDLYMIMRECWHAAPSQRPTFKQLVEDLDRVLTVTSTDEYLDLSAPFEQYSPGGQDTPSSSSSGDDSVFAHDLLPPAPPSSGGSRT

Row | SMILES | FGFR1/FGFR3 | FGFR4/FGFR3
1 | COc1cc(OC)c(F)c(N2Cc3cnc(-c4cn(C)nc4C)cc3N(c3cncc(C)n3)C2=O)c1F [Example 87, 3-(2,6-difluoro-3,5-dimethoxyphenyl)-7-(1,3-dimethyl-1H-pyrazol-4-yl)-1-(6-methylpyrazin-2-yl)-3,4-dihydropyrido[4,3-d]pyrimidin-2(1H)-one] | >5 | >10
2 | COc1cc(OC)c(F)c(N2Cc3cnc(-c4cn(CC(=O)N5CCOCC5)nc4C)cc3C3(CC3)C2=O)c1F [Example 159, 2′-(2,6-difluoro-3,5-dimethoxyphenyl)-6′-(3-methyl-1-(2-morpholino-2-oxoethyl)-1H-pyrazol-4-yl)-1′H-spiro[cyclopropane-1,4′-[2,7]naphthyridin]-3′(2′H)-one] | >5 | >3
3 | COc1cc(OC)c(F)c(N2Cc3cnc(-c4cn(C)nc4C)cc3N(C[C@H]3CCOC3)C2=O)c1F [Example 108, (R)-3-(2,6-difluoro-3,5-dimethoxyphenyl)-7-(1,3-dimethyl-1H-pyrazol-4-yl)-1-((tetrahydrofuran-3-yl)methyl)-3,4-dihydropyrido[4,3-d]pyrimidin-2(1H)-one] | >3 | >3
4 | COc1cc(OC)c(F)c(N2Cc3cnc(-c4cn(C)nc4C)cc3N(C3CCN(C(C)=O)CC3)C2=O)c1F [Example 43, 1-(1-acetylpiperidin-4-yl)-3-(2,6-difluoro-3,5-dimethoxyphenyl)-7-(1,3-dimethyl-1H-pyrazol-4-yl)-3,4-dihydropyrido[4,3-d]pyrimidin-2(1H)-one] | >10 | >5
5 | COc1cc(OC)c(F)c(N2Cc3cnc(-c4cn(C)nc4C)cc3N(Cc3ccncc3)C2=O)c1F [Example 69, 3-(2,6-difluoro-3,5-dimethoxyphenyl)-7-(1,3-dimethyl-1H-pyrazol-4-yl)-1-(pyridin-4-ylmethyl)-3,4-dihydropyrido[4,3-d]pyrimidin-2(1H)-one] | >5 | >5
6 | COc1cccc(N2C(=O)N(c3c(F)c(OC)cc(OC)c3F)Cc3cnc(-c4cn(C)nc4C)cc32)c1 [Example 109, 3-(2,6-difluoro-3,5-dimethoxyphenyl)-7-(1,3-dimethyl-1H-pyrazol-4-yl)-1-(3-methoxyphenyl)-3,4-dihydropyrido[4,3-d]pyrimidin-2(1H)-one] | >3 | >10
7 | COc1cc(OC)c(F)c(N2Cc3cnc(-c4cn(C)nc4C)cc3N(c3cnc(C)cn3)C2=O)c1F [Example 107, 3-(2,6-difluoro-3,5-dimethoxyphenyl)-7-(1,3-dimethyl-1H-pyrazol-4-yl)-1-(5-methylpyrazin-2-yl)-3,4-dihydropyrido[4,3-d]pyrimidin-2(1H)-one] | >3 | >10
8 | COc1cc(OC)c(F)c(N2Cc3cnc(-c4cn(C)nc4C)cc3N(c3ccncn3)C2=O)c1F [Example 45, 3-(2,6-difluoro-3,5-dimethoxyphenyl)-7-(1,3-dimethyl-1H-pyrazol-4-yl)-1-pyrimidin-4-yl-3,4-dihydropyrido[4,3-d]pyrimidin-2(1H)-one] | >10 | >10
9 | COC(=O)N1CCC(N2C(=O)N(c3c(F)c(OC)cc(OC)c3F)Cc3cnc(-c4cn(C)nc4C)cc32)CC1 [Example 122, Methyl 4-(3-(2,6-difluoro-3,5-dimethoxyphenyl)-7-(1,3-dimethyl-1H-pyrazol-4-yl)-2-oxo-3,4-dihydropyrido[4,3-d]pyrimidin-1(2H)-yl)piperidine-1-carboxylate] | >5 | >5
10 | COc1cc(OC)c(F)c(N2Cc3cnc(-c4cn(CCN(C)C)nc4C)cc3C3(CC3)C2=O)c1F [Example 164, 2′-(2,6-difluoro-3,5-dimethoxyphenyl)-6′-(1-(2-(dimethylamino)ethyl)-3-methyl-1H-pyrazol-4-yl)-1′H-spiro[cyclopropane-1,4′-[2,7]naphthyridin]-3′(2′H)-one] | >3 | >3
11 | COc1cc(OC)c(F)c(N2Cc3cnc(-c4cn(C)nc4C)cc3N(c3ccc4cn[nH]c4c3)C2=O)c1F [Example 133, 3-(2,6-difluoro-3,5-dimethoxyphenyl)-7-(1,3-dimethyl-1H-pyrazol-4-yl)-1-(1H-indazol-6-yl)-3,4-dihydropyrido[4,3-d]pyrimidin-2(1H)-one] | >3 | >5

Next, values leading:

Row | FGFR1/FGFR3 | FGFR4/FGFR3 | SMILES
12 | >5 | – | CCN1C(=O)N(c2c(F)c(OC)cc(OC)c2F)Cc2cnc(-c3cccnc3)cc21 [Example 23, 3-(2,6-difluoro-3,5-dimethoxyphenyl)-1-ethyl-7-(pyridin-3-yl)-3,4-dihydropyrido[4,3-d]pyrimidin-2(1H)-one]
13 | >5 | >5 | CCN1C(=O)N(c2c(F)c(OC)cc(OC)c2F)Cc2cnc(-c3ccc(N4CCOCC4)nc3)cc21 [Example 182, 3-(2,6-difluoro-3,5-dimethoxyphenyl)-1-ethyl-7-(6-morpholinopyridin-3-yl)-3,4-dihydropyrido[4,3-d]pyrimidin-2(1H)-one]
14 | >5 | – | COc1cc(OC)c(F)c(N2Cc3cnc(-c4cn(C)nc4C)cc3C3(CC3)C2=O)c1F [Example 21, 2′-(2,6-difluoro-3,5-dimethoxyphenyl)-6′-(1,3-dimethyl-1H-pyrazol-4-yl)-1′,2′-dihydro-3′H-spiro[cyclopropane-1,4′-[2,7]naphthyridin]-3′-one]
15 | >10 | >5 | COc1cc(OC)c(F)c(N2Cc3cnc(-c4cn(CCCN5CCOCC5)nc4C)cc3C3(CC3)C2=O)c1F [Example 146, 2′-(2,6-difluoro-3,5-dimethoxyphenyl)-6′-(3-methyl-1-(3-morpholinopropyl)-1H-pyrazol-4-yl)-1′H-spiro[cyclopropane-1,4′-[2,7]naphthyridin]-3′(2′H)-one]
16 | >5 | >5 | COc1cc(OC)c(F)c(N2Cc3cnc(-c4cnn(C)c4)cc3C3(CC3)C2=O)c1F [Example 186, 2′-(2,6-difluoro-3,5-dimethoxyphenyl)-6′-(1-methyl-H-pyrazol-4-yl)-1′,2′-dihydro-3′H-spiro[cyclopropane-1,4′-[2,7]naphthyridin]-3′-one]
17 | >1 | >5 | CCCN1C(=O)N(c2c(F)c(OC)cc(OC)c2F)Cc2cnc(-c3cn(C)nc3C)cc21 [Example 30, 3-(2,6-difluoro-3,5-dimethoxyphenyl)-7-(1,3-dimethyl-1H-pyrazol-4-yl)-1-propyl-3,4-dihydropyrido[4,3-d]pyrimidin-2(1H)-one]
18 | >3 | >5 | CCN1C(=O)N(c2c(F)c(OC)cc(OC)c2F)Cc2cnc(-c3cnn(C)c3)cc21 [Example 169, 3-(2,6-difluoro-3,5-dimethoxyphenyl)-1-ethyl-7-(1-methyl-1H-pyrazol-4-yl)-3,4-dihydropyrido[4,3-d]pyrimidin-2(1H)-one]
19 | >5 | >1 | COc1cc(OC)c(F)c(N2Cc3cnc(-c4cnn(CC5CCCS(=O)(=O)N5)c4)cc3C3(CC3)C2=O)c1F (stereo not shown) [Example 162, 2′-(2,6-difluoro-3,5-dimethoxyphenyl)-6′-{1-[(1,1-dioxido-1,2-thiazinan-3-yl)methyl]-1H-pyrazol-4-yl}-1′H-spiro[cyclopropane-1,4′-[2,7]naphthyridin]-3′(2′H)-one]
20 | >5 | >1 | COc1cc(OC)c(F)c(N2Cc3cnc(-c4cn(CCC#N)nc4C)cc3C3(CC3)C2=O)c1F [Example 156, 3-(4-(2′-(2,6-difluoro-3,5-dimethoxyphenyl)-3′-oxo-2′,3′-dihydro-1′H-spiro[cyclopropane-1,4′-[2,7]naphthyridine]-6′-yl)-3-methyl-1H-pyrazol-1-yl)propanenitrile]
21 | >5 | >5 | CCN1C(=O)N(c2c(F)c(OC)cc(OC)c2F)Cc2cnc(-c3ccc(C(N)=O)nc3)cc21 [Example 184, 5-(3-(2,6-difluoro-3,5-dimethoxyphenyl)-1-ethyl-2-oxo-1,2,3,4-tetrahydropyrido[4,3-d]pyrimidin-7-yl)picolinamide]
22 | >5 | >10 | COc1cc(OC)c(F)c(N2Cc3cnc(-c4cn(C)nc4C)cc3N(c3cccnc3)C2=O)c1F [Example 86, 3-(2,6-difluoro-3,5-dimethoxyphenyl)-7-(1,3-dimethyl-1H-pyrazol-4-yl)-1-(pyridin-3-yl)-3,4-dihydropyrido[4,3-d]pyrimidin-2(1H)-one]
23 | >5 | >5 | COc1cc(OC)c(F)c(N2Cc3cnc(-c4cnn(CCCN5CCOCC5)c4)cc3C3(CC3)C2=O)c1F [Example 151, 2′-(2,6-difluoro-3,5-dimethoxyphenyl)-6′-(1-(3-morpholinopropyl)-1H-pyrazol-4-yl)-1′H-spiro[cyclopropane-1,4′-[2,7]naphthyridin]-3′(2′H)-one]
24 | >5 | – | COc1cc(OC)c(F)c(N2Cc3cnc(-c4ccc(C#N)nc4)cc3C3(CC3)C2=O)c1F [Example 20, 5-(2′-(2,6-difluoro-3,5-dimethoxyphenyl)-3′-oxo-2′,3′-dihydro-1′H-spiro[cyclopropane-1,4′-[2,7]naphthyridine]-6′-yl)picolinonitrile]
25 | >5 | >1 | COc1cc(OC)c(F)c(N2Cc3cnc(-c4cn(Cc5cccnc5)nc4C)cc3C3(CC3)C2=O)c1F [Example 155, 2′-(2,6-difluoro-3,5-dimethoxyphenyl)-6′-(3-methyl-1-(pyridin-3-ylmethyl)-1H-pyrazol-4-yl)-1′H-spiro[cyclopropane-1,4′-[2,7]naphthyridin]-3′(2′H)-one]
26 | >10 | >1 | COc1cc(OC)c(F)c(N2Cc3cnc(-c4cn(CCN5CCOCC5)nc4C)cc3C3(CC3)C2=O)c1F [Example 52, 2′-(2,6-difluoro-3,5-dimethoxyphenyl)-6′-(3-methyl-1-(2-morpholinoethyl)-1H-pyrazol-4-yl)-1′H-spiro[cyclopropane-1,4′-[2,7]naphthyridin]-3′(2′H)-one]
